One assay deals with P. aeruginosa. In kind it is cell-based.
For the next assay, the system named is bacterial isolates. As to conditions: S. aureus 19 MRSA.
In another assay the test system is E. coli strain ML-35. In kind it is cell-based. The following applies: for ONPG hydrolysis diminished: cells pre-incubated with vancomycin, compared to no pre-incubation.
The test system of assay [1] is inherently resistant microorganisms.
The format of assay [2] is biochemical.
The subject of assay [3] is microorganisms with acquired resistance.
A further assay deals with MRSA (ATCC #33591). The format is in vivo, S. aureus. As to conditions: for Percentage of Animals Surviving, Treatment: MRSA ip infection in mice, iv in formulation D, protocol not named in table (1 mg/kg (20 min)); for survival: iv.
The subject of assay [4] is S. epidermidis (ATCC #12228). As to conditions: in vivo, iv.
Assay [5] deals with MSSA (Smith, ATCC #19640). The format is in vivo, S. aureus. The following applies: formulation D.
The test system of assay [6] is microorganisms with acquired resistance. The experiment in a line: microbe, parasite or virus in culture.
The mark [7] stands for this setting: E. coli ATCC 25922, agarose dilution assay.
[8] abbreviates: E. coli NCTC 10418, agarose dilution assay.
Where [9] appears, read: E. faecium ATCC 29212, agarose dilution assay.
The mark [10] stands for this setting: P. aeruginosa ATCC 27853, agarose dilution assay.
Where [11] appears, read: P. aeruginosa NCTC 10662, agarose dilution assay.
[12] abbreviates: S. aureus MRSA9, agarose dilution assay.
[13] abbreviates: S. aureus MRSA13, agarose dilution assay.
Where [14] appears, read: S. aureus MRSA17, agarose dilution assay.
[15] abbreviates: S. marcescens SM82, agarose dilution assay.
Where [16] appears, read: S. pneumoniae 406LE8, agarose dilution assay.
Setting [17] is: S. pneumoniae 60120, agarose dilution assay.
The mark [18] stands for this setting: S. pneumoniae ATCC 49619, agarose dilution assay.
Where [19] appears, read: S. aureus MRSA 13, pair Mupirocin / MBI 10CN.
Where [20] appears, read: S. aureus MRSA 17, pair Mupirocin / MBI 10CN, first line.

Values after ≈ are worked out from the molar mass of the structure shown. Read-outs that look alike come from different tables or passages of the source.

In the case of I L R W P W W P W R R K [MBI 11B7CN], the FIC with P. aeruginosa (P. aeruginosa PA008, pair Ceftriaxone / MBI 11B7CN) came to 9.50. Also, the FIC with bacterial isolates (Piperacillin + peptide) was determined as 0.50. Besides, in the assay with bacterial isolates, the “Peptide MIC + Piperacillin” value came out at 1 µg/mL, the “Peptide MIC Alone” value came out at 4 µg/mL and the “Piperacillin MIC + Peptide” value stood at 32 µg/mL. For the same compound, the membrane permeabilizing activity result in the assay with E. coli strain ML-35 (peptide pre-incubated with 150 mM NaCl or 5 mM Mg2+) is given as “significant inhibition”.

With `CO/N=C(\C(=O)N[C@@H]1C(=O)N2C(C(=O)O)=C(CSc3nc(=O)c(=O)[nH]n3C)CS[C@H]12)c1csc(N)n1` [Ceftriaxone], the MIC in combination with P. aeruginosa (P. aeruginosa PA008, pair Ceftriaxone / MBI 26) is 8 µg/mL; with P. aeruginosa (P. aeruginosa PA039, pair Ceftriaxone / MBI 11J02CN) it was 1 µg/mL; in assay [1] (S. maltophilia SMA021, pair Ceftriaxone / MBI 11B7CN) it was 1 µg/mL; in [1] (S. maltophilia SMA021, pair Ceftriaxone / MBI 26) it was 1 µg/mL; in assay [1] (S. maltophilia SMA023, pair Ceftriaxone / MBI 11B7CN), 8 µg/mL.

As for I L K K W P W W P W R R K [MBI 11CN], the MIC was 16 µg/mL with bacteria (setting [7]); 4 µg/mL in the assay with bacteria (setting [8]); 8 µg/mL with bacteria (setting [9]); greater than 128 µg/mL against bacteria (setting [10]); greater than 128 µg/mL in the assay with bacteria (setting [11]); 2 µg/mL against bacteria (setting [12]). Moreover, the MIC in the assay on bacteria (setting [13]) was 16 µg/mL; against bacteria (setting [14]) it was 4 µg/mL; in the assay on bacteria (setting [15]) it was greater than 128 µg/mL; in the assay on bacteria (setting [16]) it was greater than 128 µg/mL; against bacteria (setting [17]), greater than 128 µg/mL; with bacteria (setting [18]), 64 µg/mL. Also, the “membrane permeabilizing activity (ANTS/DPX dye release)” value in [2] is on record as “virtually abolishes membrane permeabilizing activity”. Besides, the FIC in assay [3] (peptide + Tobramycin, S. maltophilia SMA030) came to 9.27. Moreover, the results for the “Percentage of Animals Surviving, Treatment” value in the assay on MRSA (ATCC #33591) (6 hours post-infection) and with MRSA (ATCC #33591) (10 hours post-infection) were 70% and 30%, respectively. For the same compound, the survival result is on record as “delayed the death of the mice to a significant extent” in the assay with MRSA (ATCC #33591) (1 mg/kg (20 min) protocol, injections 5 minutes apart); “no improvement in survivability over the negative control” in the assay with MRSA (ATCC #33591) (5 mg/kg and 1 mg/kg (2 hr) protocols, injections 1 hour apart). Further, the ONPG hydrolysis diminished entry in the assay with E. coli strain ML-35 was “approximately 50%”. Also, the survival of mice result in assay [4] is recorded as “prolongs the survival of the mice”. Also, the “survival (mice rescued)” value in assay [5] (ip 35.7 mg/kg, 60 minutes post-infection, 8 days) is listed as 100%. Moreover, in [5] (ip below 35.7 mg/kg), the “activity at lower dose levels” value is “little or no activity”.

In the case of `COc1cccc(OC)c1C(=O)N[C@@H]1C(=O)N2[C@@H]1SC(C)(C)[C@@H]2C(=O)O` [Methicillin], the MIC stood at 16 µg/mL (≈ 42.1 µM) in assay [6] (Staphylococcus aureus, read-out: MIC alone, S. aureus SA7796, pair Methicillin / MBI 31); 16 µg/mL (≈ 42.1 µM) in assay [6] (Staphylococcus aureus, read-out: MIC alone, S. aureus SA7797, pair Methicillin / MBI 31); 16 µg/mL (≈ 42.1 µM) in assay [6] (Staphylococcus aureus, read-out: MIC alone, S. aureus SA7818, pair Methicillin / MBI 26); 16 µg/mL (≈ 42.1 µM) in [6] (Staphylococcus aureus, read-out: MIC alone, S. aureus SA7823, pair Methicillin / MBI 31); 32 µg/mL (≈ 84.1 µM) in [6] (Staphylococcus aureus, read-out: MIC alone, S. aureus SA7834, pair Methicillin / MBI 26); 64 µg/mL (≈ 168 µM) in [6] (Staphylococcus aureus, read-out: MIC alone, S. aureus SA7834, pair Methicillin / MBI 31). Also, the MIC in assay [6] (Staphylococcus aureus, read-out: MIC alone, S. aureus SA7835, pair Methicillin / MBI 26) is 32 µg/mL (≈ 84.1 µM); in assay [6] (Staphylococcus aureus, read-out: MIC alone, S. aureus SA7835, pair Methicillin / MBI 31), 64 µg/mL (≈ 168 µM). The MIC comb. was 2 µg/mL (≈ 5.26 µM) in assay [3] (S. aureus SA7796, pair Methicillin / MBI 31); 2 µg/mL (≈ 5.26 µM) in [3] (S. aureus SA7797, pair Methicillin / MBI 31); 4 µg/mL (≈ 10.5 µM) in [3] (S. aureus SA7818, pair Methicillin / MBI 26); 2 µg/mL (≈ 5.26 µM) in assay [3] (S. aureus SA7823, pair Methicillin / MBI 31); 8 µg/mL (≈ 21 µM) in assay [3] (S. aureus SA7834, pair Methicillin / MBI 26); 1 µg/mL (≈ 2.63 µM) in assay [3] (S. aureus SA7834, pair Methicillin / MBI 31). Also, the MIC comb. in [3] (S. aureus SA7835, pair Methicillin / MBI 26) came out at 4 µg/mL (≈ 10.5 µM); in assay [3] (S. aureus SA7835, pair Methicillin / MBI 31) it was 2 µg/mL (≈ 5.26 µM).

Consider `NC[C@H]1O[C@H](O[C@H]2[C@H](O)[C@@H](O[C@H]3O[C@H](CO)[C@@H](O)[C@H](N)[C@H]3O)[C@H](N)C[C@@H]2N)[C@H](N)C[C@@H]1O` [Tobramycin], for which, in assay [6] (Stenotrophomonas maltophilia, read-out: MIC alone, S. maltophilia 041, pair Tobramycin / MBI 29), the MIC is 16 µg/mL (≈ 34.2 µM). The MIC comb. in assay [3] (S. maltophilia 037, pair Tobramycin / MBI 29) stood at 4 µg/mL (≈ 8.56 µM).

`C/C(=C\C(=O)OCCCCCCCCC(=O)O)C[C@@H]1OC[C@H](C[C@@H]2O[C@H]2[C@@H](C)[C@H](C)O)[C@@H](O)[C@H]1O` [Mupirocin]: the MIC in combination in the assay with P. aeruginosa (P. aeruginosa PA2, pair Mupirocin / MBI 27) was 0.1 µg/mL; in the assay with P. aeruginosa (P. aeruginosa PA2, pair Mupirocin / MBI 29A3) it was 0.1 µg/mL; in the assay on P. aeruginosa (P. aeruginosa PA3, pair Mupirocin / MBI 29A3) it was 0.1 µg/mL; in the assay on P. aeruginosa (P. aeruginosa PA4, pair Mupirocin / MBI 27), 0.3 µg/mL; in the assay on P. aeruginosa (P. aeruginosa PA4, pair Mupirocin / MBI 29A3), 0.1 µg/mL; with P. aeruginosa (P. aeruginosa SBPA2, pair Mupirocin / MBI 29A3), 0.1 µg/mL. Further, the MIC in combination in [1] (E. coli SBECO1, pair Mupirocin / MBI 28) stood at 0.1 µg/mL. The MIC comb. worked out at 3 µg/mL (≈ 5.99 µM) in assay [3] (setting [19]); 1 µg/mL (≈ 2 µM) in [3] (setting [20]); 1 µg/mL (≈ 2 µM) in [3] (S. aureus MRSA 17, pair Mupirocin / MBI 11G13CN).

Consider I L P W K W P W W P W R R [MBI 10CN], for which the MIC in the assay on bacteria (A. calcoaceticus AC001) was 64 µg/mL; against bacteria (E. cloacae ECL007), greater than 128 µg/mL; against bacteria (setting [7]) it was 16 µg/mL; against bacteria (E. coli ECO001), 32 µg/mL; in the assay with bacteria (setting [8]), 8 µg/mL; against bacteria (E. coli SBECO2), 16 µg/mL. Further, the MIC with bacteria (E. faecalis EFS004) was 8 µg/mL; in the assay on bacteria (setting [9]), 4 µg/mL; in the assay on bacteria (E. faecium EFM003) it was 2 µg/mL; against bacteria (K. pneumoniae KP002) it was 64 µg/mL; in the assay on bacteria (setting [10]), greater than 128 µg/mL; with bacteria (setting [11]), greater than 128 µg/mL. Besides, the MIC was greater than 128 µg/mL against bacteria (P. aeruginosa PA002); 1 µg/mL against bacteria (setting [12]); 4 µg/mL in the assay with bacteria (setting [13]); 2 µg/mL with bacteria (setting [14]); 2 µg/mL in the assay with bacteria (S. aureus SA003); 4 µg/mL in the assay on bacteria (S. epidermidis SE010). Moreover, the MIC in the assay with bacteria (S. maltophilia SMA002) is 64 µg/mL; in the assay on bacteria (setting [15]), greater than 128 µg/mL; with bacteria (S. marcescens SMS004), greater than 128 µg/mL; with bacteria (setting [16]), greater than 128 µg/mL; against bacteria (setting [17]), 64 µg/mL; in the assay on bacteria (setting [18]), 32 µg/mL. Further, the Peptide MIC in assay [3] (setting [19]) was determined as 4 µg/mL; in [3] (setting [20]) it was 1 µg/mL; in [3] (S. aureus MRSA 17, pair Mupirocin / MBI 10CN, second line) it was 2 µg/mL. Further, the ONPG hydrolysis diminished entry in the assay on E. coli strain ML-35 is “approximately 50%”.
